Reference: patent US6664214B1, “Uracil compounds and use thereof” (Sumitomo Chemical Company, Limited, priority 1999, dated 2003)

How the values were obtained:
[1] = system: velvetleaf; assay: Test Example 3: foliar treatment on upland field (Table 4); format: in vivo, Abutilon theophrasti; set-up: key: 0: little difference in the degree of germination or growth between the treated plants and the untreated plants at the time of examination; 10: the treated plants died completely or their germination or growth was completely inhibited; settings: examined 16 days after application, index 0-10
Description: (§1) In the examples, the compounds are identified by the Compound Numbers as in Tables 1 to 3. […] A cylindrical plastic pot having a diameter of 10 cm and a depth of 10 cm was filled with soil and seeded with ivyleaf momingglory, velvetleaf and barnyardgrass. These test plants were grown in a greenhouse for 10 days. Then each of compounds listed below was formulated into an emulsifiable concentrate according to Formulation Example 2 and then diluted to the prescribed amount with water containing a spreading agent and the dilution was uniformly sprayed over the foliage of the test plants with sprayer at a rate of 1000 liters per hectare. After the application, the test plants were grown in the greenhouse for 16 days, and the herbicidal activity were determined.

[2] = system: velvetleaf; assay: Test Example 2: soil surface treatment on upland field; format: in vivo, Abutilon theophrasti; settings: 500 g/ha, 12 days after application
Description: (§2) In the examples, the compounds are identified by the Compound Numbers as in Tables 1 to 3. […] A cylindrical plastic pot having a diameter of 10 cm and a depth of 10 cm was filled with soil and seeded with velvetleaf. Then each of compounds 1-1, 2-1, 2-2, 3-1 and 3-101 was formulated into an emulsifiable concentrate according to Formulation Example 2 and then diluted to the prescribed amount with water and dilution was uniformly sprayed over the surface of the soil with sprayer at a rate of 1000 liters per hectare. After the application, the test plants were grown in a greenhouse for 12 days, and the herbicidal activity was examined.

[3] = system: ivyleaf morningglory; assay: Test Example 3: foliar treatment on upland field (Table 4); format: in vivo, Ipomoea hederacea; set-up: key: 0: little difference in the degree of germination or growth between the treated plants and the untreated plants at the time of examination; 10: the treated plants died completely or their germination or growth was completely inhibited; settings: examined 16 days after application, index 0-10
Description: as §1

[4] = system: barnyardgrass; assay: Test Example 4: soil surface treatment on upland field (Table 5); format: in vivo, Echinochloa crus-galli; set-up: key: 0: little difference in the degree of germination or growth between the treated plants and the untreated plants at the time of examination; 10: the treated plants died completely or their germination or growth was completely inhibited; settings: 500 g/ha active ingredient, examined 12 days after application, index 0-10
Description: as §2, with “seeded ivyleaf morningglory, velvetleaf and barnyardgrass.” for “seeded with velvetleaf.”, “compounds listed below” for “compounds 1-1, 2-1, 2-2, 3-1 and 3-101”, “at the” for “at a”

[5] = system: velvetleaf; assay: as above; format: in vivo, Abutilon theophrasti; set-up: key: 0: little difference in the degree of germination or growth between the treated plants and the untreated plants at the time of examination; 10: the treated plants died completely or their germination or growth was completely inhibited; settings: 500 g/ha active ingredient, examined 12 days after application, index 0-10
Description: as §2, with “seeded ivyleaf morningglory, velvetleaf and barnyardgrass.” for “seeded with velvetleaf.”, “compounds listed below” for “compounds 1-1, 2-1, 2-2, 3-1 and 3-101”, “at the” for “at a”

[6] = system: velvetleaf; assay: Test Example 1: foliar treatment on upland field; format: in vivo, Abutilon theophrasti; settings: 125 g/ha, 8 days after application
Description: (§3) In the examples, the compounds are identified by the Compound Numbers as in Tables 1 to 3.
(§4) A cylindrical plastic pot having a diameter of 10 cm and a depth of 10 cm was filled with soil and seeded with ivyleaf momingglory, velvetleaf and bamyardgrass. These test plants were grown in a greenhouse for 9 days. Then each of compounds 1-1, 2-1, 2-2, 3-1 and 3-101 was formulated into an emulsifiable concentrate according to Formulation Example 2 and then diluted to the prescribed amount with water containing a spreading agent and the dilution was uniformly sprayed over the foliage of the test plants with sprayer at a rate of 1000 liters per hectare. After the application, the test plants were grown in the greenhouse for 8 days, and the herbicidal activity were determined.

[7] = system: large crabgrass; assay: Test Example 5: foliar treatment on upland field (Table 6); format: in vivo, Digitaria sanguinalis; set-up: key: 0: little difference in the degree of germination or growth between the treated plants and the untreated plants at the time of examination; 10: the treated plants died completely or their germination or growth was completely inhibited; settings: 125 g/ha, 19 days after application, index 0 to 10
Description: In the examples, the compounds are identified by the Compound Numbers as in Tables 1 to 3. […] A pot for plug seedlings seeded with large crabgrass. The test plant was grown in a greenhouse for 14 days, then transplanted into a plastic pot having an area of 17×12 cm^2 and a depth of 7 cm, and further the test plants were grown in the greenhouse for 8 days. Then each of compounds listed below was formulated into an emulsifiable concentrate according to Formulation Example 2 and then diluted to the prescribed amount with water containing a spreading agent and the dilution was uniformly sprayed over the foliage of the test plants with sprayer at a rate of 1000 liters per hectare. After the application, the test plants were grown in the greenhouse for 19 days, and the herbicidal activity were determined.

[8] = system: barnyardgrass; assay: Test Example 3: foliar treatment on upland field (Table 4); format: in vivo, Echinochloa crus-galli; set-up: key: 0: little difference in the degree of germination or growth between the treated plants and the untreated plants at the time of examination; 10: the treated plants died completely or their germination or growth was completely inhibited; settings: examined 16 days after application, index 0-10
Description: as §1

[9] = system: ivyleaf morningglory; assay: Test Example 4: soil surface treatment on upland field (Table 5); format: in vivo, Ipomoea hederacea; set-up: key: 0: little difference in the degree of germination or growth between the treated plants and the untreated plants at the time of examination; 10: the treated plants died completely or their germination or growth was completely inhibited; settings: 500 g/ha active ingredient, examined 12 days after application, index 0-10
Description: as §2, with “seeded ivyleaf morningglory, velvetleaf and barnyardgrass.” for “seeded with velvetleaf.”, “compounds listed below” for “compounds 1-1, 2-1, 2-2, 3-1 and 3-101”, “at the” for “at a”

[10] = system: barnyardgrass; assay: Test Example 1: foliar treatment on upland field; format: in vivo, Echinochloa crus-galli; settings: 125 g/ha, 8 days after application
Description: as §3, §4

[11] = system: ivyleaf morningglory; assay: Test Example 1: foliar treatment on upland field; format: in vivo, Ipomoea hederacea; settings: 125 g/ha, 8 days after application
Description: as §3, §4

| SMILES | Herbicidal effect Velvetleaf ([1]; 125 g/ha active ingredient) | germination of velvetleaf [2] | Herbicidal effect Ivyleaf morningglory ([3]; 125 g/ha active ingredient) | Herbicidal effect Barnyardgrass [4] | Herbicidal effect Velvetleaf [5] | growth of velvetleaf [6] | Herbicidal effect Large crabgrass [7] | Herbicidal effect Barnyardgrass ([8]; 125 g/ha active ingredient) | Herbicidal effect Ivyleaf morningglory [9] | growth of barnyardgrass [10] | growth of ivyleaf morningglory [11] | Herbicidal effect Velvetleaf ([1]; 32 g/ha active ingredient) | Herbicidal effect Ivyleaf morningglory ([3]; 32 g/ha active ingredient) | Herbicidal effect Barnyardgrass ([8]; 32 g/ha active ingredient) |
| --- | --- | --- | --- | --- | --- | --- | --- | --- | --- | --- | --- | --- | --- | --- |
| CCOC(=O)C(C)Oc1cccc(COc2cc(-n3c(=O)cc(C(F)(F)F)n(C)c3=O)c(F)cc2Cl)c1 (stereo not shown) [Compound 2-2, Ethyl 2-[3-({2-chloro-4-fluoro-5-[3-methyl-2,6-dioxo-4-(trifluoromethyl)-1,2,3,6-tetrahydropyrimidine-1-yl]phenoxy}methyl)phenoxy]propionate] | 10 | completely controlled | 10 | 10 | 10 | completely controlled | 10 | 10 | 10 | completely controlled | completely controlled | – | – | – |
| COC(=O)C(C)Oc1cccc(C(C)Oc2cc(-n3c(=O)cc(C(F)(F)F)n(C)c3=O)c(F)cc2Cl)c1 (stereo not shown) [Compound 2-21, methyl 2-[3-(1-{2-chloro-4-fluoro-5-[3-methyl-2,6-dioxo-4-(trifluoromethyl)-1,2,3,6-tetrahydropyrimidine-1-yl]phenoxy}ethyl)phenoxy]propionate] | – | – | – | 10 | 10 | – | 10 | – | 10 | – | – | 10 | 10 | 10 |
| COC(=O)C(C)Oc1cc(COc2cc(-n3c(=O)cc(C(F)(F)F)n(C)c3=O)c(F)cc2Cl)ccc1Cl (stereo not shown) [Compound 2-41, Methyl 2-[2-chloro-5-({2-chloro-4-fluoro-5-[3-methyl-2,6-dioxo-4-(trifluoromethyl)-1,2,3,6-tetrahydropyrimidine-1-yl]phenoxy}methyl)phenoxy]propionate] | 10 | – | 10 | 10 | 10 | – | 10 | 10 | 10 | – | – | – | – | – |
| COC(=O)C(C)Oc1cc(COc2cc(-n3c(=O)cc(C(F)(F)F)n(C)c3=O)c(F)cc2Cl)ccc1OC (stereo not shown) [Compound 2-61, Methyl 2-[5-({2-chloro-4-fluoro-5-[3-methyl-2,6-dioxo-4-(trifluoromethyl)-1,2,3,6-tetrahydropyrimidine-1-yl]phenoxy}methyl)-2-methoxyphenoxy]propionate] | 10 | – | 10 | 10 | 10 | – | 10 | 10 | 10 | – | – | – | – | – |
| COC(=O)C(C)Oc1cc(COc2cc(-n3c(=O)cc(C(F)(F)F)n(C)c3=O)c(F)cc2Cl)ccc1C (stereo not shown) [Compound 2-101, Methyl 2-[5-({2-chloro-4-fluoro-5-[3-methyl-2,6-dioxo-4-(trifluoromethyl)-1,2,3,6-tetrahydropyrimidine-1-yl]phenoxy}methyl)-2-methylphenoxy]propionate] | 10 | – | 10 | 10 | 10 | – | 10 | 10 | 10 | – | – | – | – | – |
| COC(=O)C(C)Oc1ccc(Cl)c(COc2cc(-n3c(=O)cc(C(F)(F)F)n(C)c3=O)c(F)cc2Cl)c1Cl (stereo not shown) [Compound 2-161, Methyl 2-[2,4-dichloro-3-({2-chloro-4-fluoro-5-[3-methyl-2,6-dioxo-4-(trifluoromethyl)-1,2,3,6-tetrahydropyrimidine-1-yl]phenoxy}methyl)phenoxy]propionate] | 10 | – | 10 | 5 | 10 | – | 10 | 10 | 6 | – | – | – | – | – |
| COC(=O)C(C)Oc1ccc(Cl)c(COc2cc(-n3c(=O)cc(C(F)(F)F)n(C)c3=O)c(F)cc2Cl)c1 (stereo not shown) [Compound 2-187, Methyl 2-[4-chloro-3-({2-chloro-4-fluoro-5-[3-methyl −2,6-dioxo-4-(trifluoromethyl)-1,2,3,6-tetrahydropyrimidine-1-yl]phenoxy}methyl)phenoxy]propionate] | 10 | – | 10 | 9 | 10 | – | 10 | 10 | 10 | – | – | – | – | – |
| COC(=O)C(C)Oc1ccccc1COc1cc(-n2c(=O)cc(C(F)(F)F)n(C)c2=O)c(F)cc1Cl (stereo not shown) [Compound 3-1, methyl 2-[2-({2-chloro-4-fluoro-5-[3-methyl-2,6-dioxo-4-(trifluoromethyl)-1,2,3,6-tetrahydropyrimidine-1-yl]phenoxy}methyl)phenoxy]propionate] | – | completely controlled | – | – | – | completely controlled | – | – | – | completely controlled | completely controlled | – | – | – |
| CCc1ccc(COc2cc(-n3c(=O)cc(C(F)(F)F)n(C)c3=O)c(F)cc2Cl)c(OC(C)C(=O)OC)c1 (stereo not shown) [Compound 3-101, Methyl 2-[2-({2-chloro-4-fluoro-5-[3-methyl-2,6-dioxo-4-(trifluoromethyl)-1,2,3,6-tetrahydropyrimidine-1-yl]phenoxy}methyl)-5-ethylphenoxy]propionate] | – | completely controlled | – | – | – | completely controlled | – | – | – | completely controlled | completely controlled | – | – | – |
